Values of other authors as cited in publication PMC11354262 (International Journal of Molecular Sciences, 2024).

Tests used:
[1] = hydrolysis by enzymes in intestine and liver

logarithm of partition coefficient (log P): > 5 | solubility in water: practically insoluble in water | lipid half-life [1]: about 25 min
SMILES: CCCCCCCCCCCCCCCC(=O)NCCO [PEA, Palmitoylethanolamide]
